Data taken from patent publication US7592347B2, “Piperazine derivates and their use for the treatment of neurological and psychiatric diseases” (Glaxo Group Limited, priority 2003, dated 2009).

Biological target: T1, histamine H3 receptor (Homo sapiens, UniProt Q9Y5N1)
T1 construct: expressed in transfected cells; host or cells: CHO K1 cells carrying pSwitch, transfected with pGeneH3 and induced with mifepristone; clone 3H3; membranes
Test: Histamine H3 functional antagonist assay ([35S]GTPγS SPA, membranes of CHO K1 cells expressing human H3)
Type: biochemical
Conditions: functional antagonism of histamine (0.3 μM) stimulated [35S]GTPγS binding, membranes of CHO K1 cells with human histamine H3
Procedure: A membrane preparation containing histamine H3 receptors may be prepared in accordance with the following procedures:
Ligated DNA was transformed into competent DH5α E. coli host bacterial cells and plated onto Luria Broth (LB) agar containing Zeocin™ (an antibiotic which allows the selection of cells expressing the sh ble gene which is present on pGene and pSwitch) at 50 μg ml^−1. Colonies containing the re-ligated plasmid were identified by restriction analysis. DNA for transfection into mammalian cells was prepared from 250 ml cultures of the host bacterium containing the pGeneH3 plasmid and isolated using a DNA preparation kit (Qiagen Midi-Prep) as per manufacturers guidelines (Qiagen).
CHO K1 cells previously transfected with the pSwitch regulatory plasmid (InVitrogen) were seeded at 2×10e6 cells per T75 flask in Complete Medium, containing Hams F12 (GIBCOBRL, Life Technologies) medium supplemented with 10% v/v dialysed foetal bovine serum, L-glutamine, and hygromycin (100 μg ml^−1), 24 hours prior to use. Plasmid DNA was transfected into the cells using Lipofectamine plus according to the manufacturers guidelines (InVitrogen). 48 hours post transfection cells were placed into complete medium supplemented with 500 μg ml^−1 Zeocin™.
10-14 days post selection 10 nM Mifepristone (InVitrogen), was added to the culture medium to induce the expression of the receptor. […] Approximately 1×10e7 cells were examined for receptor expression by staining with a rabbit polyclonal antibody, 4a, raised against the N-terminal domain of the histamine H3 receptor, incubated on ice for 60 minutes, followed by two washes in sorting medium. […] Following two further washes with Sorting Medium, cells were filtered through a 50 μm Filcon™ (BD Biosciences) and then analysed on a FACS Vantage SE Flow Cytometer fitted with an Automatic Cell Deposition Unit. […] Positively stained cells were sorted as single cells into 96-well plates, containing Complete Medium containing 500 μg ml^−1 Zeocin™ and allowed to expand before reanalysis for receptor expression via antibody and ligand binding studies.
All steps of the protocol are carried out at 4° C. and with pre-cooled reagents. The cell pellet is resuspended in 10 volumes of buffer A2 containing 50 mM N-2-hydroxyethylpiperazine-N′-2-ethanesulfonic acid (HEPES)(pH 7.40) supplemented with 10e−4M leupeptin (acetyl-leucyl-leucyl-arginal; Sigma L2884), 25 μg/ml bacitracin (Sigma B0125), 1 mM ethylenediamine tetra-acetic acid (EDTA), 1 mM phenylmethylsulfonyl fluoride (PMSF) and 2×10e−6M pepstain A (Sigma). The cells are then homogenised by 2×15 second bursts in a 1 litre glass Waring blender, followed by centrifugation at 500 g for 20 minutes. The supernatant is then spun at 48,000 g.for 30 minutes. The pellet is resuspended in 4 volumes of buffer A2 by vortexing for 5 seconds, followed by homogenisation in a Dounce homogeniser (10-15 strokes). At this point the preparation is aliquoted into polypropylene tubes and stored at −70° C. […]
The plate is then incubated on a shaker at room temperature for 30 minutes followed by centrifugation for 5 minutes at 1500 rpm. The plate is read between 3 and 6 hours after completion of centrifuge run in a Wallac Microbeta counter on a 1 minute normalised tritium count protocol. Data is analysed using a 4-parameter logistic equation. Basal activity used as minimum i.e. histamine not added to well.

T1 sequence (Q9Y5N1 whole entry): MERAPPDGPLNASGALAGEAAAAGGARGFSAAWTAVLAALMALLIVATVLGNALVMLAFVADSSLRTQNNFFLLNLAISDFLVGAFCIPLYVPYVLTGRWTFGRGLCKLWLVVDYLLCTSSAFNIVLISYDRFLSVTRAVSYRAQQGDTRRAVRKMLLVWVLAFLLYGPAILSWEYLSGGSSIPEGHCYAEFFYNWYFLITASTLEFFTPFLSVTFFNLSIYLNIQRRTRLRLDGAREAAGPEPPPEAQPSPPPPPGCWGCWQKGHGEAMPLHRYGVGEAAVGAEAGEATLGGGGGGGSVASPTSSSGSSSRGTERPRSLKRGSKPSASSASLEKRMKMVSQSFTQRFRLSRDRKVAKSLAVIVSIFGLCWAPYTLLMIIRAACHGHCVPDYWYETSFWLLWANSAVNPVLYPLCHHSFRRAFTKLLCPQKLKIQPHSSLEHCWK

SMILES | Kb [nM]
CC(=O)c1ccc(N2CCC(C(=O)N3CCCN(C4CCC4)CC3)CC2)cc1 [Example E170, 1-Cyclobutyl-4-[1-(4-acetylphenyl)-piperidine-4-carbonyl]-[1,4]-diazepane] | < 3.16
N#Cc1ccc(N2CCC(C(=O)N3CCCN(C4CCC4)CC3)CC2)cn1 [Example E179, 1-Cyclobutyl-4-[1-(6-cyano-pyridin-3-yl)-piperidine-4-carbonyl]-[1,4]-diazepane] | < 3.16
CC(C)N1CCCN(C(=O)C2CCN(c3ccc(C#N)nc3)CC2)CC1 [Example E180, 1-Isopropyl-4-[1-(6-cyano-pyridin-3-yl)-piperidine-4-carbonyl]-[1,4]-diazepane] | < 3.16
Cc1noc(-c2ccc(N3CCC(C(=O)N4CCN(C(C)C)CC4)CC3)cc2)n1 [Example E185, 1-Isopropyl-4-{1-[4-(3-methyl-1,2,4-oxadiazol-5-yl)phenyl]-piperidine-4-carbonyl}-piperazine] | < 3.16
CC(C)N1CCCN(C(=O)C2CCN(c3cnc(C(F)(F)F)nc3)CC2)CC1 [Example E198, 1-Isopropyl-4-[1-(2-trifluoromethylpyrimidin-5-yl)-piperidine-4-carbonyl]-[1,4]-diazepane] | < 3.16
